Measurements reported in patent publication US4999351A, “7-aryl and heteroaryl ethers of desacetylforskolin” (Hoechst-Roussel Pharmaceuticals, Inc., priority 1989, dated 1991).
Where a name gives a salt, the structure may show the parent alone.

Test system: isolated guinea pig atria
Test: Inotropic activity: increase in contractile force in isolated guinea pig atria
Details: Cavia porcellus; isolated left atrium, male guinea pig; 50% change of contractile force over the stabilized rate; Kreb's solution, 37° C., 3 Hz stimulation; read-out: Extrapolated ED50 value (concentration increasing contractile force by 50%)
Method: The aryl and heteroaryl ethers of desacetylforskolin of the present invention are useful in the treatment of cardiac failure by virtue of their ability to elicit a positive inotropic effect as evidenced by an increase in contractile force in an isolated guinea pig atria assay which is performed as follows: Male guinea pigs weighing 200-300 grams are stunned with a blow to the back of the head. The heart is rapidly removed and placed in a petri dish containing Kreb's solution. The ventricle is separated from the atria, the atria are sectioned in the right and left atria, and double-O silk ligatures are tied to the apex of the left atrium. The atrium is fixed to a pair of platinum plate electrodes and suspended in a 20 ml tissue bath containing Kreb's solution aerated with 95% oxygen-5% carbon dioxide at 37° C. One end of the atrium is fixed to a hook in the electrode and the other end is connected to a Grass FT03 force displacement transducer. Resting tension and stabilization time are the same as described above. The atrium is stimulated at 3 Hz, 0.5 msec duration at supramaximal voltage (constant current) via a Grass S88 stimulator and constant current unit. Force of contraction is continuously displaced on a Gould recorder Test drug is prepared as in section A and is added to the tissue baths in the same fashion. Change in contractile force from baseline is determined for each concentration, and the change in contractile force (g) is plotted against accumulated drug concentration (ug/ml). The activity of the test drug, i.e., the increase in contractile force (g) from the stabilized force expressed as the percentage change at a given concentration is determined graphically, as in the ED50 -value, i.e., the extrapolated does (μg/ml) which increases the contractile force by 50% over the stabilized rate.

Row | SMILES | EC (50% increase) [µg/mL]
1 | C=C[C@@]1(C)CC(=O)[C@]2(O)[C@@]3(C)[C@@H](O)CCC(C)(C)[C@@H]3[C@H](OC(=O)NCCN(C)C)[C@H](Oc3ccccn3)[C@@]2(C)O1 [A, 7-desacetyl-6-(2-dimethylaminoethylaminocarbonyl)-7-(pyridin-2-yl)forskolin hydrochloride hydrate] | 0.009
2 | C=C[C@@]1(C)CC(=O)[C@]2(O)[C@@]3(C)[C@@H](O)CCC(C)(C)[C@@H]3[C@H](O)[C@H](Oc3ncccn3)[C@@]2(C)O1 [B, 7-Desacetyl-7-(pyrimidin-2-yl)forskolin] | 0.01
3 | C=C[C@@]1(C)CC(=O)[C@]2(O)[C@@]3(C)[C@@H](O)CCC(C)(C)[C@@H]3[C@H](O)[C@H](OC(C)=O)[C@@]2(C)O1 [Compound C, Forskolin] | 0.073
